In US20100113507A1, “3-Tetrazolyl Indazoles, 3-Tetrazolyl Pyrazolopyridines, and use Thereof” (BAYER HEALTHCARE AG, priority 2006, published 2010):
pIC50: −log10 of the molar value.

What was measured:
[1] = reported by A. Straub et al., Bioorg. Med. Chem. Lett. 11, 781-784 (2001); cited from earlier work
aorta rings = assay: Vasorelaxant effect in vitro (phenylephrine-contracted aorta rings); assay type: cell-based, Rabbits; conditions: Oryctolagus cuniculus; rabbit aorta rings, contraction induced by phenylephrine, 37° C., 0.1% DMSO; read-out: IC50 (concentration necessary to reduce the level of contraction by 50%)
Protocol: Rabbits are stunned by a blow to the back of the neck and are exsanguinated. The aorta is removed, freed of adherent tissue, divided into rings 1.5 mm wide and placed singly in 5 ml organ baths with carbogen-gassed Krebs-Henseleit solution of the following composition (in each case mM): NaCl: 119; KCl: 4.8; CaCl2×2H2O: 1; MgSO4×7H2O: 1.4; KH2PO4: 1.2; NaHCO3: 25; glucose: 10, under an initial tension at 37° C. The force of contraction is detected with Statham UC2 cells, amplified and digitized via A/D converters (DAS-1802 HC, Keithley Instruments Munich), and recorded in parallel on chart recorders. A contraction is induced by adding phenylephrine to the bath cumulatively in increasing concentration. After several control cycles, the substance to be investigated is added in each further run in increasing dosage each time, and the level of contraction is compared with the level of contraction achieved in the last preceding run. The concentration necessary to reduce the level of contraction by 50% (IC50) is calculated therefrom. The standard application volume is 5 μl and the DMSO content in the bath solution corresponds to 0.1%.

Compound | vasorelaxant effect [1] | pIC50 (aorta rings)
Fc1ccccc1Cn1nc(-c2nnn[nH]2)c2cccnc21 [1-(2-fluorobenzyl)-3-(1H-tetrazol-5-yl)-1H-pyrazolo[3,4-b]pyridine] | moderately vasorelaxant effect | 
c1cnc2c(c1)c(-c1nnn[nH]1)nn2CC1CCCCCC1 [Example 1, 1-(Cycloheptylmethyl)-3-(1H-tetrazol-5-yl)-1H-pyrazolo[3,4-b]pyridine] |  | 5.70
Fc1cccc(Cn2nc(-c3nnn[nH]3)c3cccnc32)c1F [Example 4, 1-(2,3-Difluorobenzyl)-3-(1H-tetrazol-5-yl)-1H-pyrazolo[3,4-b]pyridine] |  | 5.35
Clc1ccc(Cn2nc(-c3nnn[nH]3)c3cccnc32)s1 [Example 7, 1-[(5-Chloro-2-thienyl)methyl]-3-(1H-tetrazol-5-yl)-1H-pyrazolo[3,4-b]pyridine] |  | 5.21
